These results are taken from US10881716B2, “Rapid-acting insulin formulation comprising a substituted anionic compound” (ADOCIA, priority 2012, dated 2021).

Data set [1] has as its target T1, lispro insulin (R6 hexameric form) (Homo sapiens, UniProt P01308, K53P/P52K).
T1 construct: purchased Eli Lilly Humalog®
Description: Association state of lispro insulin evaluated by circular dichroism (CD signal at 251 nm). It counts as physicochemical. Conditions: D1, FIG. 11; Humalog + 9.3 mM citrate, 6 mM EDTA, 7.3 mg/ml Compound 1, 20 mg/ml Polyanionic compound 1. The source says: Circular dichroism makes it possible to study the secondary and quaternary structure of insulin. The insulin monomers are organized as dimers and as hexamers. […] Two hexameric forms exist, the R6 form and the T6 form. […] Loss of the CD signal at 251 nm is linked to destabilization of the hexamer (and thus the first sign of transformation of the hexamer into dimer).
Circular dichroism makes it possible to study the secondary and quaternary structure of insulin. The insulin monomers are organized as dimers and as hexamers. […] Two hexameric forms exist, the R6 form and the T6 form. […] Loss of the CD signal at 251 nm is linked to destabilization of the hexamer (and thus the first sign of transformation of the hexamer into dimer). […]
A general note: CD spectra are sensitive to the conformation of chiral molecules.

Data set [2] addresses human insulin (hexameric form) (Homo sapiens, UniProt P01308). Description: Association state of human insulin evaluated by circular dichroism (CD signal at 275 nm). It counts as physicochemical. As to conditions: D2, FIG. 12; rhINS + 9.3 mM citrate, 6 mM EDTA, 7.3 mg/ml Compound 1, 20 mg/ml Polyanionic compound 1. The procedure:
Circular dichroism makes it possible to study the secondary and quaternary structure of insulin. The insulin monomers are organized as dimers and as hexamers. […] The CD signal at 275 nm is characteristic of the hexameric form of insulin (hexamer signal at about −300°, signal for the dimer between −200° and −250°, and signal for the monomer below −200°. Loss of the CD signal at 275 nm is therefore characteristic of destabilization of the hexamer into dimers or monomers.
Circular dichroism makes it possible to study the secondary and quaternary structure of insulin. The insulin monomers are organized as dimers and as hexamers. […] The CD signal at 275 nm is characteristic of the hexameric form of insulin (hexamer signal at about −300°, signal for the dimer between −200° and −250°, and signal for the monomer below −200°). Loss of the CD signal at 275 nm is therefore characteristic of destabilization of the hexamer into dimers or monomers.

For data set [3] the following is noted: pH at which the insulin precipitates; cited from earlier work.
In a further data set the target is human insulin (Homo sapiens, UniProt P01308). Description: Dissolution of human insulin at its isoelectric point (pH 5.3). It counts as binding. As to conditions: translucent = Yes, turbid = No. The method, then: If an interaction exists, it is possible to dissolve the insulin at its isoelectric point. […] Solutions of compounds at different concentrations (8, 30 or 100 mg/mL) in water are prepared. […] The pH of the various solutions is adjusted to pH 5.3 by adding 200 mM acetic acid. The appearance of the solution is documented.
Chain of human insulin (P01308 25-54 limits assumed): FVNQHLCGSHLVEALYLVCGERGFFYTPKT
Chain of human insulin (P01308 90-110 limits assumed): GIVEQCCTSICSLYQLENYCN

The target of data set [4] is BSA (bovine serum albumin) (Bos taurus, UniProt P02769). Description: Interaction with albumin, Centricon test (50 kDa membrane), UV assay of the filtrate. The data set is classed as binding. As to conditions: 2.43 mg/mL of polysaccharide or compound, 13.3 mg/mL of albumin in PBS, about 100 mM of salts. The procedure: F1: In order to determine the interactions between the various polysaccharides or compounds and a model protein such as albumin, a Centricon test (membrane with a cut-off threshold of 50 kDa) was performed. A solution of polysaccharide or of compound at 7.3 mg/mL was diluted three-fold in a solution of BSA (bovine serum albumin) at 20 mg/mL in PBS (concentration in the mixture: 2.43 mg/mL of polysaccharide or of compound, 13.3 mg/mL of albumin and about 100 mM of salts).
Chain of BSA (bovine serum albumin) (P02769 25-607): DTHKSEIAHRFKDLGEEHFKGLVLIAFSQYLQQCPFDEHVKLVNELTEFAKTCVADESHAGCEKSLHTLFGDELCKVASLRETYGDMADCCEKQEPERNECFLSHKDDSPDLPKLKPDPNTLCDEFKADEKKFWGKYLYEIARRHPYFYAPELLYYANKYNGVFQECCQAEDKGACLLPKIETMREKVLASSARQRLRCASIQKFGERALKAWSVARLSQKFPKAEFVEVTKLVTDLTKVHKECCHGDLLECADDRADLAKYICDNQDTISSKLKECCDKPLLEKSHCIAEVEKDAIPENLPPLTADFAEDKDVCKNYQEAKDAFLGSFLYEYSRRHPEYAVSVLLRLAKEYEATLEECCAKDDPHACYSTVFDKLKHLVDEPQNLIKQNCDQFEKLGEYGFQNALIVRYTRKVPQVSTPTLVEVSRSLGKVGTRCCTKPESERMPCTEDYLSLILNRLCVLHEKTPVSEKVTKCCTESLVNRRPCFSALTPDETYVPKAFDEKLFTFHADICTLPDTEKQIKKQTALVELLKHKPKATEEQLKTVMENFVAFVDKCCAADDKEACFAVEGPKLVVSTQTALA
This mixture was centrifuged on a Centricon to make about half the volume pass through the membrane. The albumin is quantitatively retained on the Centricon membrane. The polysaccharides and compounds analyzed alone pass in large majority through the membrane (for the polysaccharides having the largest molar masses, about 20% of the polysaccharide is retained).
After centrifugation, the polysaccharide or compound is assayed by UV in the filtrate. The percentage of polysaccharide or compound bound to the albumin is calculated via the following equation:
(1-[polysaccharide or compound in the filtrate in the presence of albumin]/[polysaccharide or compound in the filtrate in the absence of albumin])*100

The subject of a further data set is man. As to conditions: subcutaneously-injected, diabetic patients; cited from earlier work.

Structures can show the parent of a compound that is named as a salt.

Chain of human insulin (hexameric form) (P01308 25-54 limits assumed): as the sequence (P01308 25-54 limits assumed) above
T1 sequence (P01308 25-54 P52K/K53P limits assumed): as the sequence (P01308 25-54 limits assumed) above, with P28K, K29P counted along it

For the molecule `O=C(O)CN(CCN(CC(=O)O)CC(=O)O)CC(=O)O` [EDTA, reference compound], the “impact on the CD signal at 251 nm / R6 hexameric form of lispro insulin” value in data set [1] is reported as “completely destructure the R6 form of lispro insulin”. Moreover, the “impact on the CD signal at 275 nm / hexameric structure of human insulin” value in data set [2] is reported as “total dissociation of the hexamer into dimers”.
The matching figures for `O=C(O)CC(O)(CC(=O)O)C(=O)O` [citrate, sodium citrate]: “virtually no impact on the CD signal at 251 nm” and “no impact on the hexameric structure of human insulin”.
Regarding “Lispro insulin: rapid insulin analog, active principle of Humalog”, the isoelectric point in data set [3] was 5.3.
Turning to “Sodium Maltooctaosemethylcarboxylate Functionalized with Sodium L-Phenylalaninate [Compound 9]”, on human insulin, the “Dissolution of human insulin at 100 IU/mL with the compound at 4 mg/mL” value (“Dissolution of human insulin … at 4 mg/mL” below) is recorded as “No”, the “Dissolution of human insulin at 100 IU/mL with the compound at 15 mg/mL” value (shortened to “Dissolution of human insulin … at 15 mg/mL”) was “No” and the “Dissolution of human insulin at 100 IU/mL with the compound at 50 mg/mL” value (from here on “Dissolution of human insulin … at 50 mg/mL”) is reported as “Yes”. Also, the “% Polysaccharide or % Compound bound to BSA” value in data set [4] is recorded as 43%.
Regarding “Sodium Maltopentaosemethylcarboxylate Functionalized with Sodium L-Phenylalaninate [Compound 8]”, on human insulin, the “Dissolution of human insulin … at 4 mg/mL” value is recorded as “No”, the “Dissolution of human insulin … at 15 mg/mL” value is given as “No” and the “Dissolution of human insulin … at 50 mg/mL” value was “Yes”. In addition, in data set [4], the “% Polysaccharide or % Compound bound to BSA” value is 27%.
Consider “Sodium Maltotriosemethylcarboxylate Functionalized with Sodium Alpha-Phenylglycinate [Compound 11]”, for which, in data set [4], the “% Polysaccharide or % Compound bound to BSA” value is reported as 35%.
For “Sodium Maltotriosemethylcarboxylate Functionalized with Sodium L-Tyrosinate [Compound 10]”, on human insulin, the “Dissolution of human insulin … at 4 mg/mL” value is “No”, the “Dissolution of human insulin … at 15 mg/mL” value is “No” and the “Dissolution of human insulin … at 50 mg/mL” value is given as “Yes”.
For “Sodium Maltotriosemethylcarboxylate [Polyanionic compound 1]”, the “impact on the CD signal at 275 nm / hexameric structure of human insulin” value in data set [2] is “no impact on the hexameric structure of human insulin”.
As to “human insulin: insulin obtained by synthesis or recombination, whose peptide sequence is the sequence of human insulin”, in the data set on man, the “hypoglycemiant effect only after” value is 60 min.
